Data set [1] in a line: Finite-dose in vitro diffusion study, Franz-type cells, 24 hours (Example 1). The format is in vitro ADME, human. The settings on record: effect of PEG200 in combination with OS vs 5% OS comparison composition, 2.8% NETA, 0.55% E2, 3.6 μL/cm2. The procedure:
These experiments were performed over 24 hours using Franz-type cells. Pre-cut skin membranes were mounted as a barrier between the halves of greased (high vacuum grease, BDH) horizontal Franz-type permeation cells in the middle of the receptor chamber of the cell with the stratum corneum facing the donor chamber. The area available for permeation was approximately 0.925 cm2. The receptor chambers of the permeation cells were filled with the receptor phase (Phosphate Buffered Saline pH 7.4) and capped. The permeation cells were immersed in a constant temperature water bath such that the receptor chambers were maintained at 35° C. Receptor chamber contents were continuously agitated by small PTFE-coated magnetic stirrer bars driven by submersible magnetic stirrers. The skin was allowed to equilibrate to temperature with receptor solution for 1 h in the water bath prior to dosing.
The formulations were applied to the skin at a dose of 3.6 μL/cm2. The applied formulation was spread over the skin area using an Eppendorf positive displacement pipette tip without breaking the skin membrane. […]

Data set [2] can be described thus: Estradiol Spray finite-dose in vitro permeation study (Example 7). The format is in vitro ADME, human. Particulars: 24 h. How it is done:
Finite-dose in vitro permeation studies were undertaken using dermatomed skin (Padgett Model B or S electric dermatome set at 500 μm) prepared from excised […], abdominal skin.
These experiments were conducted over 24 hours (h) using flow-through systems with a 1-cm2 administration area. […] The receptor solution was maintained at a nominal flow rate of 0.5 mL/h by a peristaltic pump (Watson Marlow 520S Peristaltic Pump with 313A adaptor and 308MC 8 roller pump-head; Stauff Corporation, Australia). The cells were placed on a heater bar to keep the temperature of the skin at 32±1° C.
Following a 2-h equilibration of the skin with the receptor solution (RS; 0.002% sodium azide), the stratum corneum surface was dosed with 3.6 μL/cm^2 of an Estradiol Transdermal Spray formulation using a positive displacement pipette. The formulation was spread evenly over the skin area using the pipette tip.
The Estradiol transdermal spray formulations contained:— • Estradiol (E2)+Octyl Salicylate (OS) in Isopropyl Alcohol IPA • E2+OS+Polyethylene glycol (PEG200) in Isopropyl Alcohol IPA • E2+OS+Polyethylene glycol 400 (PEG400) in IPA

Data set [3] is classed as in vitro ADME, human. The text has this: The receptor solutions (Phosphate Buffered Saline pH7.4) maintained sink conditions below the skin.
The formulations consisted of:— • Composition (Camp) 1 (Control): 1.35% Nestorone (NES), 0.35% Ethinylestradiol (EE), 5% Octyl Salicylate (OS) in Isopropyl Alcohol (IPA) • Comp 2: 1.35% NES, 0.35% EE, 5% OS, 5% Polyethylene glycol 400 (PEG400) in IPA • Comp 3: 1.35% NES, 0.35% EE, 0.5% Polyethylene glycol (PEG200) in IPA • Comp 4: 1.35% NES, 0.35% EE, 5% OS, 0.5% PEG200 in IPA • Comp 5: 1.35% NES, 0.35% EE, 1% PEG200 in IPA • Comp 6: 1.35% NES, 0.35% EE, 5% OS, 1% PEG200 in IPA • Comp 7: 1.35% NES, 0.35% EE, 2.5% PEG200 in IPA • Comp 8: 1.35% NES, 0.35% EE, 5% OS, 2.5% PEG200 in IPA • Comp 9: 1.35% NES, 0.35% EE, 5% PEG200 in IPA • Comp 10:1.35% NES, 0.35% EE, 5% OS, 5% PEG200 in IPA • Comp 11: 1.35% NES, 0.35% EE, 10% PEG200 in IPA • Camp 12: 1.35% NES, 0.35% EE, 5% OS, 10% PEG200 in IPA

Data set [4] in a line: Diclofenac Transdermal Spray finite-dose in vitro diffusion study (Example 6). Particulars: 24 hr. The format is in vitro ADME, human. The procedure:
Finite-dose in vitro diffusion studies were undertaken dermatomed skin (Padgett Model B or S electric dermatome set at 500 μm) prepared from excised […], abdominal skin.
These experiments were conducted over 24 hours using flow-through systems with a 1-cm^2 administration area.
Following a 2-h equilibration of the skin with the receptor solution (RS) of phosphate-buffered saline (PBS) pH 7.4, the stratum corneum surface was dosed with a volume of 3.6 μL/cm^2 (unless otherwise indicated) of a test formulation using a positive displacement pipette. The formulation was spread evenly over the skin area using the pipette tip.
The Diclofenac Transdermal Spray formulations were as follows: — • 0.1-2.0% Diclofenac (DIC) diethylamine in Isopropyl alcohol (IPA) [no enhancer] • 0.1-2.0% DIC diethylamine, 5% Octyl Salicylate (OS) in IPA [OS alone] • 0.1-2.0% DIC diethylamine, 2.5% Polyethylene glycol 200 (PEG 200) in IPA [PEG 200 alone] • 0.1-2.0% DIC diethylamine, 5% OS, 2.5% PEG 200 in IPA [OS+PEG 200]
A commercially available Diclofenac gel (approximately 5 mg/cm2) was used as a control. The commercially available gel was applied using a solid cap to simulate the rubbing action required when using the product. Approximately 7 mg gel was applied to the circular surface of a black polypropylene cylindrical cap (Alltech catalogue #98105, diameter 11 mm). […]

Data set [5] in a line: Finite-dose in vitro diffusion study, flow through diffusion cells, 15 μL/cm2 (Example 3). Particulars: effect of PEG200 (0.5-2.5%) in combination with 5% OS, 2% TES, 2% PVP, 30% IPA in ethanol, 24 hr.
Protocol: These experiments were performed over 24 hours using stainless steel, flow through diffusion cells based on those described previously (Cooper, E. R. J. Pharm. Sci. 1984, 73, 1153-1156) except that the cell was modified to increase the diffusion area to 1.0 cm2. The formulations were applied using a finite dose technique (Franz, T. J. Curr. Probl. Dermatol., 1978, 7, 58-68) to mimic clinical dosing conditions at an applied dose volume of 15 μL/cm2. […] The receptor solutions (0.002% w/v NaN3) maintained sink conditions below the skin.
The formulations consisted of:— • Comp 1: 2% Testosterone (TES), 5% Octyl Salicylate (OS), 2% polyvinyl pyrrolidine (PVP), 30% isopropyl alcohol (IPA) in ethanol (95%) • Comp 2: 2% TES, 5% OS, 2% PVP, 30% IPA, 0.5% polyethylene glycol 200 (PEG200) in ethanol (95%) • Comp 3: 2% TES, 5% OS, 2% PVP, 30% IPA, 1.0% PEG200 in ethanol (95%) • Comp 4: 2% TES, 5% OS, 2% PVP, 30% IPA, 2.5% PEG200 in ethanol (95%)
A short description of data set [6]: Finite-dose in vitro diffusion study, flow through diffusion cells, 3.6 μL/cm2 (Example 4). Particulars: effect of PEG200 (1.0-2.5%) in combination with 5% OS, 5% TES in ethanol (95%), 24 hr.
Protocol: These experiments were performed over 24 hours using stainless steel, flow through diffusion cells based on those described previously (Cooper, E. R. J. Pharm. Sci. 1984, 73, 1153-1156) except that the cell was modified to increase the diffusion area to 1.0 cm2. The formulations were applied using a finite dose technique (Franz, T. J. Curr. Probl. Dermatol., 1978, 7, 58-68) to mimic clinical dosing conditions at an applied dose volume of 3.6 μL/cm2. […] The receptor solutions (0.002% w/v NaN3) maintained sink conditions below the skin.

Consider six compounds from patent publication US9078810B2, “Transdermal delivery system” (Acrux DDS Pty Ltd., priority 2007, dated 2015).

Read-outs that look alike come from different tables or passages of the source.

For the compound `C[C@]12CC[C@@H]3c4ccc(O)cc4CC[C@H]3[C@@H]1CC[C@@H]2O` [estradiol, Estradiol], in data set [1], the “permeation through human epidermis in vitro” value is reported as “significantly enhance”. The “permeation through human skin in vitro” value was “synergistically enhanced” in data set [2] (effect of PEG200 combined with OS in IPA, 3.6 μL/cm^2); “no significant effect” in data set [2] (effect of PEG400 alone and PEG400+OS compared with the control formulation). For `C#C[C@]1(O)CC[C@H]2[C@@H]3CCc4cc(O)ccc4[C@H]3CC[C@@]21C` [Ethinylestradiol], the “permeation through human epidermis in vitro” value in data set [3] is listed as “inhibit”.

Take `O=C(O)Cc1ccccc1Nc1c(Cl)cccc1Cl` [DIC, Diclofenac]: the “permeation through human epidermis in vitro” value in data set [4] (effect of PEG200 in combination with OS, DIC diethylamine, 5% OS, 2.5% PEG 200 in IPA) is given as “significantly enhance”; in data set [4] (effect of PEG 400, either alone or in combination with OS), “decrease”.

As for `C=C1C[C@H]2[C@@H]3CCC4=CC(=O)CC[C@@H]4[C@H]3CC[C@]2(C)[C@@]1(OC(C)=O)C(C)=O` [Nestorone], the “permeation through human epidermis in vitro” value in data set [3] is listed as “did not have a significant effect”. For `C[C@]12CC[C@H]3[C@@H](CCC4=CC(=O)CC[C@@]43C)[C@@H]1CC[C@@H]2O` [Testosterone], the “permeation through human epidermis in vitro” value in data set [5] and in data set [6] was “significantly enhance” each time.

On to `C#C[C@]1(OC(C)=O)CC[C@H]2[C@@H]3CCC4=CC(=O)CC[C@@H]4[C@H]3CC[C@@]21C` [Norethisterone Acetate], for which the “permeation through human epidermis in vitro” value in data set [1] is “significantly enhance”.
